The text below walks through data of BindingDB's records for doi:10.1016/j.bmc.2005.01.048 (Pfizer, 2005).

The target of the test is T1, Renin (Homo sapiens, UniProt P00797).
T1 sequence (P00797 whole entry): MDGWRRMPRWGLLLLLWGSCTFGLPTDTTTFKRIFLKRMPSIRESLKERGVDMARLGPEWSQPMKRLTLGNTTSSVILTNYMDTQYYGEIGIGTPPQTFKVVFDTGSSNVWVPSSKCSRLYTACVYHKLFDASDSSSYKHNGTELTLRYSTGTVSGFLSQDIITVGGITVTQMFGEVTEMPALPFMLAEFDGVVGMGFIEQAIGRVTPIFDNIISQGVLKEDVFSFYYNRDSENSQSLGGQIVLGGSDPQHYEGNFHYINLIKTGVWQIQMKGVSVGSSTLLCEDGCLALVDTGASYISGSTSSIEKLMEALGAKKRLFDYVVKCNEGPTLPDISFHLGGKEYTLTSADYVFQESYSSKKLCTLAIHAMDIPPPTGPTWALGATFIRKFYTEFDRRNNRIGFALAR
As to the kind of experiment: In Vitro Renin IC50 Determinations (Tandem GFP FRET Assay). To be noted: pH 7.4; 22 °C. An excerpt:
The renin assay utilized a tandem Green Flourescent Protein (tGFP) substrate that was hydrolyzed by human rennin. The tGFP substrate contained a nine amino acid (Ile-His-Pro-Phe-His-Leu-Val-Ile-His) recognition sequence for human renin flanked by two GPF proteins (W1B and Topaz). Human rennin cleaves the leucine-valine site of the substrate linker. Once cleaved, the emission ratio changes. The change was monitored by the ratio of 530 nm (topaz) over 475 nm (W1B) with the excitation set at 432 nm and the cutoff at 515 nm. The assay used a 384 well plate format that was read using a Gemini XS Fluorometric plate reader (Molecular Devices). Compounds were screened at a starting concentration of 10 uM and used a fourfold eleven-point dilution regiment.
Usually IC50 stands for the point on the concentration scale where inhibition reaches its midpoint. Consider `COc1ccccc1COCCCOc1ccc(N2C(=O)CNC[C@@H]2COc2ccc3c(c2)N(CCNC(C)=O)CCC3)cc1`, for which the IC50 was found to be 0.3 nM. For `COc1ccccc1COCCCOc1ccc(N2CCNC[C@@H]2COc2ccc3ccccc3c2)cc1` [(2R)-1-(4-{3-[(2-methoxyphenyl)methoxy]propoxy}phenyl)-2-[(naphthalen-2-yloxy)methyl]piperazine] the value was 180 nM. For `COc1ccccc1COCCCOc1ccc(N2CCNC[C@@H]2COCc2ccc(-c3ccccc3)cc2)cc1` [(2R)-1-(4-{3-[(2-methoxyphenyl)methoxy]propoxy}phenyl)-2-{[(4-phenylphenyl)methoxy]methyl}piperazine] the value was 1020 nM.

Turning to `COc1ccccc1COCCCOc1ccc(N2CCNC[C@@H]2COc2ccc3c(c2)N(CCNC(C)=O)CCC3)cc1` [N-[2-(7-{[(2R)-1-(4-{3-[(2-methoxyphenyl)methoxy]propoxy}phenyl)piperazin-2-yl]methoxy}-1,2,3,4-tetrahydroquinolin-1-yl)ethyl]acetamide], the IC50 stood at 0.5 nM.
